Reference: the supplement of paper PMC11451515

Experiments:
Conditions in all cases: 48 h
NOMO1 [1] = experiment: cell viability relative to DMSO control; higher = less cytotoxic
Outline: (§1)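 Before seeding, each leukemia line was adapted for at least four passages in each medium. NOMO1 or SEM cells (500 cells/well) and P12-Ichikawa cells (1000 cells/well) went into 1536-well plates at 5 μl, then received library compounds in DMSO by pin dosing across 11 threefold concentrations, 47 μM to 0.79 nM. Readout was CellTiter-Glo One luminescence after 48 h at 37°C, and viability is given as a per-plate percentage of DMSO wells, with cell-free wells as background.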

P12-Ichikawa [2] = experiment: as above
Outline: as §1

SEM cells [3] = experiment: as above
Outline: as §1

NOMO1 [4] = experiment: AUC of viability dose-response curve (% viability x log10 dose units); higher = less sensitive
Outline: (§2)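 Leukemia cells adapted to each medium were seeded at 500 or 1000 cells/well in 1536-well plates and dosed with library compounds in DMSO at 11 threefold doses from 47 μM to 0.79 nM for 48 h at 37°C. CellTiter-Glo One luminescence was normalised per plate to DMSO and cell-free wells, then fitted with a four-parameter log-logistic model over log10 doses. Area under the curve was taken from this fit by the trapezoidal rule, with curves above full viability scaled and curves failing quality control removed.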

P12-Ichikawa [5] = experiment: as above
Outline: as §2

SEM cells [6] = experiment: as above
Outline: as §2

COc1ccc(CC2NCCc3cc(OC)c(OC)cc32)cc1OC (stereo unspecified)
cell viability [%]
Conditions | NOMO1 [1] | P12-Ichikawa [2] | SEM cells [3]
HPLM + 10% dialyzed FBS, 0.000781 µM | 91.9 | 88.9 | 89.6
HPLM + 10% dialyzed FBS, 0.00234 µM | 87.5 | 96.3 | 93
HPLM + 10% dialyzed FBS, 0.00702 µM | 82.6 | 98.2 | 86.6
HPLM + 10% dialyzed FBS, 0.0211 µM | 103 | 99.8 | 85.3
HPLM + 10% dialyzed FBS, 0.0632 µM | 102 | 95 | 65.7
HPLM + 10% dialyzed FBS, 0.19 µM | 98.7 | 98.9 | 94.2
HPLM + 10% dialyzed FBS, 0.569 µM | 91.6 | 97.4 | 93.3
HPLM + 10% dialyzed FBS, 1.71 µM | 87.4 | 95.5 | 93.7
HPLM + 10% dialyzed FBS, 5.12 µM | 101 | 94 | 88.4
HPLM + 10% dialyzed FBS, 15.4 µM | 93.7 | 94 | 79.5
HPLM + 10% dialyzed FBS, 46.1 µM | 98.4 | 96.7 | 15.4
RPMI 5 mM glucose + 10% FBS, 0.000781 µM | 88.1 | 85.5 | 85.2
RPMI 5 mM glucose + 10% FBS, 0.00234 µM | 86.2 | 88.7 | 84
RPMI 5 mM glucose + 10% FBS, 0.00702 µM | 87 | 89 | 82.2
RPMI 5 mM glucose + 10% FBS, 0.0211 µM | 90.8 | 87.1 | 97.4
RPMI 5 mM glucose + 10% FBS, 0.0632 µM | 86.8 | 83.2 | 82.4
RPMI 5 mM glucose + 10% FBS, 0.19 µM | 89.3 | 86 | 99.1
RPMI 5 mM glucose + 10% FBS, 0.569 µM | 89.7 | 90.9 | 88.5
RPMI 5 mM glucose + 10% FBS, 1.71 µM | 94.7 | 89.2 | 93.5
RPMI 5 mM glucose + 10% FBS, 5.12 µM | 86.6 | 82.3 | 97.5
RPMI 5 mM glucose + 10% FBS, 15.4 µM | 89.4 | 92.2 | 47
RPMI 5 mM glucose + 10% FBS, 46.1 µM | 97.1 | 84.8 | 12.8
RPMI 5 mM glucose + 10% dialyzed FBS, 0.000781 µM | 79.5 | 95 | 85.9
RPMI 5 mM glucose + 10% dialyzed FBS, 0.00234 µM | 84.1 | 92.9 | 78.6
RPMI 5 mM glucose + 10% dialyzed FBS, 0.00702 µM | 83.9 | 86.7 | 90.7
RPMI 5 mM glucose + 10% dialyzed FBS, 0.0211 µM | 91.2 | 87.9 | 87.3
RPMI 5 mM glucose + 10% dialyzed FBS, 0.0632 µM | 86.3 | 82.1 | 71.4
RPMI 5 mM glucose + 10% dialyzed FBS, 0.19 µM | 89.2 | 92.4 | 98.2
RPMI 5 mM glucose + 10% dialyzed FBS, 0.569 µM | 82.9 | 85.3 | 105
RPMI 5 mM glucose + 10% dialyzed FBS, 1.71 µM | 91 | 88.2 | 99.9
RPMI 5 mM glucose + 10% dialyzed FBS, 5.12 µM | 89.5 | 87.8 | 95.2
RPMI 5 mM glucose + 10% dialyzed FBS, 15.4 µM | 73.3 | 91.3 | 66.8
RPMI 5 mM glucose + 10% dialyzed FBS, 46.1 µM | 85.4 | 82.4 | 19.3

AUC of viability dose-response curve
Conditions | NOMO1 [4] | P12-Ichikawa [5] | SEM cells [6]
HPLM + 10% dialyzed FBS | 451 | 459 | 397
RPMI 5 mM glucose + 10% FBS | 427 | 416 | 390
RPMI 5 mM glucose + 10% dialyzed FBS | 407 | 420 | 403

O=NN(CCCl)C(=O)NCCCl
cell viability [%]
Conditions | NOMO1 [1] | P12-Ichikawa [2] | SEM cells [3]
HPLM + 10% dialyzed FBS, 0.000781 µM | 89.1 | 87 | 75.9
HPLM + 10% dialyzed FBS, 0.00234 µM | 107 | 94.8 | 89
HPLM + 10% dialyzed FBS, 0.00702 µM | 99.1 | 108 | 117
HPLM + 10% dialyzed FBS, 0.0211 µM | 116 | 103 | 86.6
HPLM + 10% dialyzed FBS, 0.0632 µM | 128 | 103 | 100
HPLM + 10% dialyzed FBS, 0.19 µM | 113 | 114 | 121
HPLM + 10% dialyzed FBS, 0.569 µM | 127 | 100 | 107
HPLM + 10% dialyzed FBS, 1.71 µM | 101 | 101 | 121
HPLM + 10% dialyzed FBS, 5.12 µM | 106 | 102 | 94.1
HPLM + 10% dialyzed FBS, 15.4 µM | 127 | 104 | 110
HPLM + 10% dialyzed FBS, 46.1 µM | 109 | 95.2 | 85.8
RPMI 5 mM glucose + 10% FBS, 0.000781 µM | 84.4 | 83.3 | 85.4
RPMI 5 mM glucose + 10% FBS, 0.00234 µM | 99.3 | 97.9 | 105
RPMI 5 mM glucose + 10% FBS, 0.00702 µM | 102 | 100 | 104
RPMI 5 mM glucose + 10% FBS, 0.0211 µM | 104 | 96.3 | 110
RPMI 5 mM glucose + 10% FBS, 0.0632 µM | 118 | 109 | 121
RPMI 5 mM glucose + 10% FBS, 0.19 µM | 116 | 100 | 119
RPMI 5 mM glucose + 10% FBS, 0.569 µM | 107 | 97.2 | 119
RPMI 5 mM glucose + 10% FBS, 1.71 µM | 120 | 93.6 | 125
RPMI 5 mM glucose + 10% FBS, 5.12 µM | 110 | 103 | 129
RPMI 5 mM glucose + 10% FBS, 15.4 µM | 110 | 99.3 | 118
RPMI 5 mM glucose + 10% FBS, 46.1 µM | 101 | 98.6 | 102
RPMI 5 mM glucose + 10% dialyzed FBS, 0.000781 µM | 91.4 | 87 | 80.1
RPMI 5 mM glucose + 10% dialyzed FBS, 0.00234 µM | 94.5 | 95.8 | 88.3
RPMI 5 mM glucose + 10% dialyzed FBS, 0.00702 µM | 109 | 104 | 100
RPMI 5 mM glucose + 10% dialyzed FBS, 0.0211 µM | 112 | 99.7 | 87.4
RPMI 5 mM glucose + 10% dialyzed FBS, 0.0632 µM | 101 | 106 | 113
RPMI 5 mM glucose + 10% dialyzed FBS, 0.19 µM | 98.9 | 99.7 | 108
RPMI 5 mM glucose + 10% dialyzed FBS, 0.569 µM | 108 | 94.6 | 102
RPMI 5 mM glucose + 10% dialyzed FBS, 1.71 µM | 109 | 100 | 117
RPMI 5 mM glucose + 10% dialyzed FBS, 5.12 µM | 102 | 97.2 | 111
RPMI 5 mM glucose + 10% dialyzed FBS, 15.4 µM | 109 | 102 | 107
RPMI 5 mM glucose + 10% dialyzed FBS, 46.1 µM | 97.9 | 100 | 84.3

AUC of viability dose-response curve
Conditions | NOMO1 [4] | P12-Ichikawa [5] | SEM cells [6]
HPLM + 10% dialyzed FBS | 462 | 465 | 463
RPMI 5 mM glucose + 10% FBS | 461 | 471 | 455
RPMI 5 mM glucose + 10% dialyzed FBS | 463 | 472 | 456
